Experimental data reported in article PMC7413254 (Nature Communications, 2020).

How the values were obtained:
Assay type in all cases: cell-based
PfCRT^Dd2 [1] = target: T1, PfCRT^Dd2 (Plasmodium falciparum, UniProt Q9N623, A220S/I356T/K76T/M74I/N326S/N75E/Q271E/R371I); test: [3H]CQ uptake into Xenopus oocytes, cis-inhibition by unlabelled solute; settings: PfCRTDd2 oocytes, background [3H]CQ accumulation subtracted, normalised to oocyte type control
Outline: (§1)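 Each treatment used ten oocytes, repeated in at least four experiments on different days with oocytes from different frogs. Conditions: ND96 pH 5.5, 27.5 °C, 1.5 h; read-out by scintillation counting.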

PfCRT^Ecu1110 [2] = target: T2, PfCRT^Ecu1110 (Plasmodium falciparum, UniProt Q9N623, A220S/I356L/K76T/N326D); test: as above; settings: for PfCRT-mediated [3H]CQ transport, cis-inhibition (% PfCRTEcu1110 control): PfCRTEcu1110 oocytes, background [3H]CQ accumulation subtracted, normalised to oocyte type control; for [3H]CQ transport (% PfCRTEcu1110 control), cis-inhibition, PfCRTEcu1110: PfCRT-mediated component (background subtracted), sheet title says normalised to PfCRTDd2 control, mean ± SEM, SEM
Outline: as §1

PfCRT^3D7 = PfCRT^3D7 (Plasmodium falciparum, UniProt Q8IBZ9); test: cell-based; settings: PfCRT3D7 oocytes, normalised to oocyte type control
Outline: (§2)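 Oocytes (ten per treatment, ≥4 independent frogs/days) were preloaded by injecting VF-6 in 25 nL ND96 at pH 5.0, 5.5, 6.0 or 7.0, or Na^+-free choline buffer, then uptake run 1.5 h, 27.5 °C, ND96 pH 5.5 by default. Internal concentrations assumed ~400 nL oocyte volume.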

PfCRT^Dd2 [3] = target: T1, PfCRT^Dd2; test: cell-based; settings: for PfCRT-mediated [3H]CQ transport, trans-stimulation (% PfCRTDd2 control): PfCRTDd2 oocytes, normalised to oocyte type control; for [3H]CQ transport (% PfCRTDd2 control), trans-stimulation, PfCRTDd2: PfCRT-mediated component (background subtracted), mean ± SEM, SEM
Outline: as §2

PfCRT^Ecu1110 [4] = target: T2, PfCRT^Ecu1110; test: cell-based; settings: for PfCRT-mediated [3H]CQ transport, trans-stimulation (% PfCRTEcu1110 control): PfCRTEcu1110 oocytes, normalised to oocyte type control; for [3H]CQ transport (% PfCRTDd2 control), trans-stimulation, PfCRTEcu1110: PfCRT-mediated component (background subtracted), sheet title says normalised to PfCRTDd2 control, mean ± SEM, SEM
Outline: as §2

[5] = [test solute]i = 5 mM (intracellular)
[6] = [test solute]i = 45 mM (intracellular; 30 mM for some solutes due to solubility)
[7] = [test solute]i = 5 mM (injected)
[8] = [test solute]i = 45 mM (30 mM for some solutes due to solubility)

Sequence of PfCRT^3D7 (Q8IBZ9 59-398): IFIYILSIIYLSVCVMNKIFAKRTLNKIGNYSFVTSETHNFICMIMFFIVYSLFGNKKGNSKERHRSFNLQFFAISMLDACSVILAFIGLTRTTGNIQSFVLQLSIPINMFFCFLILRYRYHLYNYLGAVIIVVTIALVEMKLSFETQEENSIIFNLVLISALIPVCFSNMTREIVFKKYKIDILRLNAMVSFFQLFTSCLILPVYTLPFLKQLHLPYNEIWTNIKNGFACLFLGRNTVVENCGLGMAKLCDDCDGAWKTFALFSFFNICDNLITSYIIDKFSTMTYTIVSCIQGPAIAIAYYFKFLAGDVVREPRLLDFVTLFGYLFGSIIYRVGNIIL
T1 sequence (Q9N623 whole entry A220S/I356T/K76T/M74I/N326S/N75E/Q271E/R371I): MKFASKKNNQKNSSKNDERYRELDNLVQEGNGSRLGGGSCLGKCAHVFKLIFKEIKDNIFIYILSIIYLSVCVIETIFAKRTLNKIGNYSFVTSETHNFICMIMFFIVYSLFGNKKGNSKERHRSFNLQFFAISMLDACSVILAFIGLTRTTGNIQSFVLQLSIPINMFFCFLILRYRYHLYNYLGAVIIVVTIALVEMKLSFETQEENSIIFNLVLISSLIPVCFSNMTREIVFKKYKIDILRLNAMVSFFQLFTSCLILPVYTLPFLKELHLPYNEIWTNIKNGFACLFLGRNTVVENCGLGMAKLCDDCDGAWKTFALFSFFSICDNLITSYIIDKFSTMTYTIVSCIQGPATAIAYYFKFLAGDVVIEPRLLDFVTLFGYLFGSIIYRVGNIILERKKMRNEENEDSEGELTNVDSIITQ
T2 sequence (Q9N623 whole entry A220S/I356L/K76T/N326D): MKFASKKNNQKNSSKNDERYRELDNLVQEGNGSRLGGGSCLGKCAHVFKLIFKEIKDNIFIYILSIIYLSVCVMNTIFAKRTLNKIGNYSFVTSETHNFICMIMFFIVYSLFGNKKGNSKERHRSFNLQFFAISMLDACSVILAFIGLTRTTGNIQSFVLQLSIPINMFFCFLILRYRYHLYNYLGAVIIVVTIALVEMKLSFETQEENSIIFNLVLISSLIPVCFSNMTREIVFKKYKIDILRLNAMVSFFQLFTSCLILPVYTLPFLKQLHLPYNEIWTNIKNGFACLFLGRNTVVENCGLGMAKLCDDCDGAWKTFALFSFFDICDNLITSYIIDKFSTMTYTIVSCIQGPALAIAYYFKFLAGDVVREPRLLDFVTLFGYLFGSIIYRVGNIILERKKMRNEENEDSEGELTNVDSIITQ

Substance	PfCRT-mediated [3H]CQ transport, cis-inhibition (% PfCRTDd2 control) (PfCRT^Dd2 [1]; [test solute] = 0.5 mM)	PfCRT-mediated [3H]CQ transport, cis-inhibition (% PfCRTDd2 control) (PfCRT^Dd2 [1]; [test solute] = 1 mM)	PfCRT-mediated [3H]CQ transport, cis-inhibition (% PfCRTDd2 control) (PfCRT^Dd2 [1]; [test solute] = 2 mM)	PfCRT-mediated [3H]CQ transport, cis-inhibition (% PfCRTEcu1110 control) (PfCRT^Ecu1110 [2]; [test solute] = 0.5 mM)	PfCRT-mediated [3H]CQ transport, cis-inhibition (% PfCRTEcu1110 control) (PfCRT^Ecu1110 [2]; [test solute] = 1 mM)	PfCRT-mediated [3H]CQ transport, cis-inhibition (% PfCRTEcu1110 control) (PfCRT^Ecu1110 [2]; [test solute] = 2 mM)	[3H]CQ transport (% PfCRTEcu1110 control), cis-inhibition, PfCRTEcu1110 (PfCRT^Ecu1110 [2]; [test solute] = 0.5 mM)	[3H]CQ transport (% PfCRTEcu1110 control), cis-inhibition, PfCRTEcu1110 (PfCRT^Ecu1110 [2]; [test solute] = 1 mM)	[3H]CQ transport (% PfCRTEcu1110 control), cis-inhibition, PfCRTEcu1110 (PfCRT^Ecu1110 [2]; [test solute] = 2 mM)	PfCRT-mediated [3H]CQ transport, trans-stimulation (% PfCRT3D7 control) (PfCRT^3D7; [5])	PfCRT-mediated [3H]CQ transport, trans-stimulation (% PfCRT3D7 control) (PfCRT^3D7; [6])	PfCRT-mediated [3H]CQ transport, trans-stimulation (% PfCRTDd2 control) (PfCRT^Dd2 [3]; [5])	PfCRT-mediated [3H]CQ transport, trans-stimulation (% PfCRTDd2 control) (PfCRT^Dd2 [3]; [6])	[3H]CQ transport (% PfCRTDd2 control), trans-stimulation, PfCRTDd2 (PfCRT^Dd2 [3]; [7])	[3H]CQ transport (% PfCRTDd2 control), trans-stimulation, PfCRTDd2 (PfCRT^Dd2 [3]; [8])	PfCRT-mediated [3H]CQ transport, trans-stimulation (% PfCRTEcu1110 control) (PfCRT^Ecu1110 [4]; [5])	PfCRT-mediated [3H]CQ transport, trans-stimulation (% PfCRTEcu1110 control) (PfCRT^Ecu1110 [4]; [6])	[3H]CQ transport (% PfCRTDd2 control), trans-stimulation, PfCRTEcu1110 (PfCRT^Ecu1110 [4]; [7])	[3H]CQ transport (% PfCRTDd2 control), trans-stimulation, PfCRTEcu1110 (PfCRT^Ecu1110 [4]; [8])
VDPVNFK [VK-7]	17 ± 0.3 % PfCRTDd2 control	9 ± 0.1 % PfCRTDd2 control	3.2 ± 0.1 % PfCRTDd2 control	40 ± 2.5 % PfCRTEcu1110 control	27 ± 4.1 % PfCRTEcu1110 control	22 ± 2.4 % PfCRTEcu1110 control	13 ± 0.6 % PfCRTEcu1110 control	9.0 ± 0.02 % PfCRTEcu1110 control	7.0 ± 0.04 % PfCRTEcu1110 control	128 ± 3.2 % PfCRT3D7 control	179 ± 5.3 % PfCRT3D7 control	100 ± 4.2 % PfCRTDd2 control	98 ± 2.2 % PfCRTDd2 control	100 ± 4.2 % PfCRTDd2 control	98 ± 2.2 % PfCRTDd2 control	132 ± 3.5 % PfCRTEcu1110 control	138 ± 4.1 % PfCRTEcu1110 control	40 ± 2.1 % PfCRTEcu1110 control	42 ± 2.4 % PfCRTEcu1110 control
VHLT [VT-4]	51 ± 2.0 % PfCRTDd2 control	39 ± 2.8 % PfCRTDd2 control	16 ± 0.4 % PfCRTDd2 control	56 ± 4.1 % PfCRTEcu1110 control	39 ± 4.1 % PfCRTEcu1110 control	27 ± 1.4 % PfCRTEcu1110 control	18 ± 0.3 % PfCRTEcu1110 control		9.0 ± 0.2 % PfCRTEcu1110 control	97 ± 3.2 % PfCRT3D7 control	95 ± 4.7 % PfCRT3D7 control	97 ± 4.6 % PfCRTDd2 control	98 ± 3.2 % PfCRTDd2 control	97 ± 4.6 % PfCRTDd2 control	98 ± 3.2 % PfCRTDd2 control	99 ± 3.2 % PfCRTEcu1110 control	97 ± 3.6 % PfCRTEcu1110 control	30 ± 1.3 % PfCRTEcu1110 control	29 ± 1.5 % PfCRTEcu1110 control
